Counter-ions that a name gives are not always drawn. Marks after values point to notes of the source that are not given here. Each block holds one compound with its values, some of them ahead of it.
Experiments:
[1] = tested on: OVA-specific IgG2a (Th1 type); assay: Effect on antibody production of ovalbumin-sensitized mice: IgG2a; format: in vivo, BALB/c mouse; settings: 30 mg/kg b.w. orally, 5 days a week during 9-day period, serum 11 days after first sensitization, ELISA; for inhibition in vivo at 30 mg/kg: Mus musculus, po, 264 h, read-out: Suppression Rate (%) IgG2a
Experimental: (§1) Effect on Antibody Production of Mice Sensitized by Controlled-Release Ovalbumin
(§2) A male BALB/c mouse (Charles River) of 7 weeks old was sensitized by intraabdominal administration, twice at an interval of a week, of a mixture of 10 μg/mouse of ovalbumin (OVA; albumin chicken egg grade III; Sigma Chemical) and 1 mg of aluminum hydroxide hydrate gel suspension (Alum; LSL Co. LTD.). After 11 days from the first sensitization, blood was collected from beneath eye under ether anesthesia, and the amount of OVA-specific IgE, IgG1 (Th2 type) and IgG2a (Th1 type) antibodies in the serum were determined by the ELISA method. A sample compound (30 mg/kg b.w.) was suspended in 0.4 ml of methylcellulose (MC), and the suspension was orally administered, 5 days a week during the 9-day period from the initiation day of sensitization to the day before the day of blood sample collection (1 Group, n=8 to 10).

[2] = tested on: OVA-specific IgE; assay: Effect on antibody production of ovalbumin-sensitized mice: IgE; format: in vivo, BALB/c mouse; settings: 30 mg/kg b.w. orally, 5 days a week during 9-day period, serum 11 days after first sensitization, ELISA; for inhibition in vivo at 30 mg/kg: Mus musculus, po, 264 h, read-out: Suppression Rate (%) IgE
Experimental: as §1, §2

[3] = tested on: IL-5; assay: Effect on cytokine production of mice sensitized by controlled-release ovalbumin: IL-5; format: in vivo, BALB/c mouse; settings: 30 mg/kg b.w. orally, 5 days a week during 9-day period, splenic cells incubated with OVA 3 days, ELISA; for inhibition in vivo at 30 mg/kg: Mus musculus, po, read-out: Suppression Rate (%) IL-5
Experimental: (§3) Effect on Cytokine Production of Mice Sensitized by Controlled-Release Ovalbumin
(§4) An osmotic pump (Alza Co., USA) containing a solution (100 μL) containing 1.0 mg of ovalbumin (OVA; albumin chicken egg grade III, Sigma Chemical) was implanted in the back of a male BALB/c mouse (Charles River) of 8 weeks old under ether anesthesia, and the mouse is sensitized by the controlled-release ovalbumin. After 11 days from implantation of the pump, a sample of spleen was removed, and a splenic cell suspension was prepared by the use of the RPMI-1640 medium (Bio Whittaker Inc., USA) containing inactivated fetal bovine serum (10% V/V; Bio Whittaker Inc., USA), 2-mercaptoethanol (50 μM), and gentamicin (20 μg/ml). A sample compound (30 mg/kg b.w.) was suspended in 0.4 ml of methylcellulose (MC), and the suspension was orally administered, 5 days a week during the 9-day period from the initiation day of sensitization to the day before the day of blood sample collection (1 Group, n=10). The splenic cell suspension was adjusted to a concentration of 5.0×10^6 cells/ml, and the resulting suspension (100 μl) was pipetted onto a 96 well U-bottomed plate, each of the wells containing a solution (100 μl/well) of 400 μg/ml OVA, and the plate was incubated at 37° C. in a 5% carbon dioxide gas incubator for 3 days. The cultured media were centrifuged at 200×g for 5 minutes, and the supernatants were collected and the production of IL-4, IL-5 and IFN-γ in each of the supernatants was determined by the ELISA method [Mouse IL-4 Bulk Kit (PerSeptive Biosystems), Mouse IL-5 Bulk Kit (PerSeptive Biosystems), and Mouse IFN-γ Bulk Kit (PerSeptive Biosystems)].

[4] = tested on: IFN-γ; assay: Effect on cytokine production of mice sensitized by controlled-release ovalbumin: IFN-γ; format: in vivo, BALB/c mouse; settings: 30 mg/kg b.w. orally, 5 days a week during 9-day period, splenic cells incubated with OVA 3 days, ELISA; for inhibition in vivo at 30 mg/kg: Mus musculus, po, read-out: Suppression Rate (%) IFN-γ
Experimental: as §3, §4

[5] = tested on: IL-4; assay: Effect on cytokine production of mice sensitized by controlled-release ovalbumin: IL-4; format: in vivo, BALB/c mouse; settings: 30 mg/kg b.w. orally, 5 days a week during 9-day period, splenic cells incubated with OVA 3 days, ELISA; for inhibition in vivo at 30 mg/kg: Mus musculus, po, read-out: Suppression Rate (%) IL-4
Experimental: as §3, §4

melting point: 195 to 196 °C
SMILES: Cc1nn(-c2ccccn2)c2nc(O)cc(-c3ccccc3)c12 [Example 1-27, 3-Methyl-4-phenyl-1-(2-pyridinyl)-1H-pyrazolo[3,4-b]pyridin-6-ol]
inhibition in vivo at 30 mg/kg [1]: 27.1%
inhibition in vivo at 30 mg/kg [2]: 24.3%

melting point: 248 to 249 °C
SMILES: Cc1nn(-c2ccccn2)c2nc(O)c3c(c12)CCCC3 [Example 1-29, 1-Methyl-3-(2-pyridinyl)-6,7,8,9-tetrahydro-3H-pyrazolo[3,4-c]isoquinolin-5-ol]
inhibition in vivo at 30 mg/kg [1]: -22.6%
inhibition in vivo at 30 mg/kg [2]: 19.1%

melting point: 268 to 271 °C
SMILES: Cc1nn(-c2ccccn2)c2nc3ccccc3c(N)c12.Cl [Example 1-36, 3-Methyl-1-(2-pyridinyl)-1H-pyrazolo[3,4-b]quinolin-4-ylamine hydrochloride]
inhibition in vivo at 30 mg/kg [1]: 23.4%
inhibition in vivo at 30 mg/kg [3]: 61.5%
inhibition in vivo at 30 mg/kg [2]: 64.2%
inhibition in vivo at 30 mg/kg [4]: -131%
inhibition in vivo at 30 mg/kg [5]: 99.8%

melting point: 229 to 232 °C
SMILES: CNc1c2ccccc2nc2c1c(C)nn2-c1ccccn1.Cl [Example 1-37, N-Methyl-N-[3-methyl-1-(2-pyridinyl)-1H-pyrazolo[3,4-b]quinolin-4-yl]amine hydrochloride]
inhibition in vivo at 30 mg/kg [1]: 9.6%
inhibition in vivo at 30 mg/kg [2]: 29.6%

melting point: 98 to 101 °C
SMILES: Cc1nn(-c2ccccn2)c2nc3ccccc3c(N(C)C)c12 [Example 1-38, N,N-Dimethyl-N-[3-methyl-1-(2-pyridinyl)-1H-pyrazolo[3,4-b]quinolin-4-yl]amine]
inhibition in vivo at 30 mg/kg [1]: -122%
inhibition in vivo at 30 mg/kg [2]: 36.1%

melting point: 252 to 253 °C
SMILES: Cc1nn(-c2ccccn2)c2[nH]c3ccccc3c(=S)c12 [Example 1-42, 3-Methyl-1-(2-pyridinyl)-1,9-dihydro-4H-pyrazolo[3,4-b]quinolin-4-thione]
inhibition in vivo at 30 mg/kg [1]: 14.3%
inhibition in vivo at 30 mg/kg [2]: 24%

melting point: 252 to 255 °C
SMILES: Cc1cccc2nc3c(c(C)nn3-c3ccccn3)c(N)c12 [Example 1-44, 3,5-Dimethyl-1-(2-pyridinyl)-1H-pyrazolo[3,4-b]quinolin-4-ylamine]
inhibition in vivo at 30 mg/kg [3]: 3.1%
inhibition in vivo at 30 mg/kg [4]: 36.3%
inhibition in vivo at 30 mg/kg [5]: 68.2%

SMILES: Cc1cccc2c(N)c3c(C)nn(-c4ccccn4)c3nc12 [Example 1-46, 3,8-Dimethyl-1-(2-pyridinyl)-1H-pyrazolo[3,4-b]quinolin-4-ylamine hydrochloride]
inhibition in vivo at 30 mg/kg [3]: 5.2%
inhibition in vivo at 30 mg/kg [4]: -132%
inhibition in vivo at 30 mg/kg [5]: 80.4%

SMILES: Cc1cccc2c(=O)c3c(C)nn(-c4ccccn4)c3[nH]c12 [Example 1-47, 3,8-Dimethyl-1-(2-pyridinyl)-1,9-dihydro-4H-pyrazolo[3,4-b]quinolin-4-one]
inhibition in vivo at 30 mg/kg [1]: -17.1%
inhibition in vivo at 30 mg/kg [3]: 61.1%
inhibition in vivo at 30 mg/kg [2]: 4.9%
inhibition in vivo at 30 mg/kg [4]: 31.8%
inhibition in vivo at 30 mg/kg [5]: 49.9%

SMILES: COc1cccc2c(N)c3c(C)nn(-c4ccccn4)c3nc12 [Example 1-48, 8-Methoxy-3-methyl-1-(2-pyridinyl)-1H-pyrazolo[3,4-b]quinolin-4-ylamine hydrochloride]
inhibition in vivo at 30 mg/kg [3]: 16.2%
inhibition in vivo at 30 mg/kg [4]: -7.6%
inhibition in vivo at 30 mg/kg [5]: 31.6%

SMILES: COc1cc2[nH]c3c(c(C)nn3-c3ccccn3)c(=O)c2cc1OC [Example 1-49, 6,7-Dimethoxy-3-methyl-1-(2-pyridinyl)-1,9-dihydro-4H-pyrazolo[3,4-b]quinolin-4-one]
inhibition in vivo at 30 mg/kg [3]: 11.8%
inhibition in vivo at 30 mg/kg [4]: -9%
inhibition in vivo at 30 mg/kg [5]: 13.9%

SMILES: Cc1nn(-c2ccccn2)c2[nH]c3ccc(Cl)cc3c(=O)c12 [Example 1-51, 6-Chloro-3-methyl-1-(2-pyridinyl)-1,9-dihydro-4H-pyrazolo[3,4-b]quinolin-4-one]
inhibition in vivo at 30 mg/kg [3]: 53.7%
inhibition in vivo at 30 mg/kg [4]: -11.2%
inhibition in vivo at 30 mg/kg [5]: 31.9%

SMILES: Cc1cccnc1-n1nc(C)c2c(Cl)c3ccccc3nc21 [Example 1-56, 4-Chloro-3-methyl-1-(3-methyl-2-pyridinyl)-1H-pyrazolo[3,4-b]quinoline]
inhibition in vivo at 30 mg/kg [3]: 12.2%
inhibition in vivo at 30 mg/kg [4]: 12.2%
inhibition in vivo at 30 mg/kg [5]: 23.7%

SMILES: CCOc1cccc(-n2nc(C)c3c(Cl)c4c(C)cccc4nc32)n1 [Example 1-57, 4-Chloro-3,5-dimethyl-1-(6-ethoxy-2-pyridinyl)-1H-pyrazolo[3,4-b]quinoline]
inhibition in vivo at 30 mg/kg [1]: -55.1%
inhibition in vivo at 30 mg/kg [3]: 53.9%
inhibition in vivo at 30 mg/kg [2]: 23.6%
inhibition in vivo at 30 mg/kg [4]: 36.7%
inhibition in vivo at 30 mg/kg [5]: 43.2%

SMILES: COc1cccc(-n2nc(C)c3c(N)c4cccc(C)c4nc32)n1 [Example 1-59, 3,8-Dimethyl-1-(6-methoxy-2-pyridinyl)-1H-pyrazolo[3,4-b]quinolin-4-ylamine]
inhibition in vivo at 30 mg/kg [1]: 46.3%
inhibition in vivo at 30 mg/kg [3]: 27.8%
inhibition in vivo at 30 mg/kg [2]: 60.7%
inhibition in vivo at 30 mg/kg [4]: -124%
inhibition in vivo at 30 mg/kg [5]: 66.5%

SMILES: CCOc1cccc(-n2nc(C)c3c(N)c4cccc(C)c4nc32)n1 [Example 1-60]
Suppression Rate (%) IgG2a [1]: 47.8%
Suppression Rate (%) IL-5 [3]: 59.3%
Suppression Rate (%) IgE [2]: 54.9** %
Suppression Rate (%) IFN-γ [4]: 23.4%
Suppression Rate (%) IL-4 [5]: 56.7%

SMILES: CCOc1cccc(-n2nc(C)c3c(=O)c4cccc(C)c4[nH]c32)n1 [Example 1-61, 3,8-Dimethyl-1-(6-ethoxy-2-pyridinyl)-1,9-dihydro-4H-pyrazolo[3,4-b]quinolin-4-one]
inhibition in vivo at 30 mg/kg [3]: 26.1%
inhibition in vivo at 30 mg/kg [4]: -8.7%
inhibition in vivo at 30 mg/kg [5]: 16%

SMILES: Cc1cccnc1-n1nc(C)c2c(N)c3cccc(C)c3nc21 [Example 1-62, 3,8-Dimethyl-1-(3-methyl-2-pyridinyl)-1H-pyrazolo[3,4-b]quinolin-4-ylamine]
inhibition in vivo at 30 mg/kg [3]: 4.8%
inhibition in vivo at 30 mg/kg [4]: -13.8%
inhibition in vivo at 30 mg/kg [5]: 19.4%

SMILES: Cc1nn(-c2cccnc2)c2[nH]c3ccccc3c(=O)c12 [Example 1-64, 3-Methyl-1-(3-pyridinyl)-1,9-dihydro-4H-pyrazolo[3,4-b]quinolin-4-one]
inhibition in vivo at 30 mg/kg [3]: 39.9%
inhibition in vivo at 30 mg/kg [4]: -6.8%
inhibition in vivo at 30 mg/kg [5]: 49.1%

SMILES: Cc1nn(-c2ncccn2)c2nc3ccccc3c(N)c12 [Example 1-65, 3-Methyl-1-(2-pyrimidinyl)-1H-pyrazolo[3,4-b]quinolin-4-ylamine hydrochloride]
inhibition in vivo at 30 mg/kg [3]: 16.5%
inhibition in vivo at 30 mg/kg [4]: -15.7%
inhibition in vivo at 30 mg/kg [5]: 8.1%

SMILES: Cc1cccc2c(N)c3c(C)nn(-c4ccc5ccccc5n4)c3nc12 [Example 1-66, 3,8-Dimethyl-1-(2-quinolinyl)-1H-pyrazolo[3,4-b]quinolin-4-ylamine]
inhibition in vivo at 30 mg/kg [3]: 34.3%
inhibition in vivo at 30 mg/kg [4]: 50%
inhibition in vivo at 30 mg/kg [5]: 27.1%

melting point: 312 to 315 °C
SMILES: Cl.Nc1c2ccccc2nc2c1cnn2-c1ccccn1 [Example 1-67, 1-(2-Pyridinyl)-1H-pyrazolo[3,4-b]quinolin-4-ylamine hydrochloride]
inhibition in vivo at 30 mg/kg [1]: -30.7%
inhibition in vivo at 30 mg/kg [2]: 10.5%

SMILES: Cc1nn(Cc2ccccn2)c2[nH]c3ccccc3c(=O)c12 [Example 1-69, 3-Methyl-1-(2-pyridinylmethyl)-1,9-dihydro-4H-pyrazolo[3,4-b]quinolin-4-one]
inhibition in vivo at 30 mg/kg [3]: 50%
inhibition in vivo at 30 mg/kg [4]: 8.3%
inhibition in vivo at 30 mg/kg [5]: 19.4%
